Data taken from publication PMC5433008 (BMC Neuroscience, 2017).

System: NMDA-evoked currents in cultured rat embryonic hippocampal neurons (NMDAr)
Details: 500 µM

TKRSSRAFRE [EAR7]
inhibitory action on NMDA-evoked currents (control peptide): No inhibitory action
